Results taken from patent US7422868B2, “Microbial ATP extraction and detection system” (Promega Corporation, priority 2004, dated 2008).

What was measured:
[1] = tested on: Pseudomonas aeruginosa (ATCC27853); test: Effect of alternate divalent cations on ATP extraction and detection; format: cell-based; details: high (20 mM) divalent cation concentration; approximately 1×10^6 cells per well
Procedure: To evaluate the effects of alternate divalent cations on ATP extraction and detection at low (0.2 mM) and high (20 mM) divalent cation concentrations, Pseudomonas aeruginosa (ATCC27853) was grown in Mueller Hinton II (MH II) Broth at 37° C. overnight. The overnight culture was diluted 50-fold in fresh MH II Broth and then incubated for several hours to reach log phase. Cells were diluted to approximately 1×10^6 cells per well.

S. aureus ATCC 25923 = test: Bioluminescent detection of bacterial growth as a function of antibiotic dose; format: cell-based; details: 19 hours of incubation at 37° C.; ATP detection assay
Procedure: Four bacterial strains were used to evaluate the relationship between microbial cell number and luminescence. Bacterial strains Escherichia coli (ATCC25922), Staphylococcus aureus (ATCC25923), Pseudomonas aeruginosa (ATCC27853) and Bacillus cereus (ATCC10987) were grown in Mueller Hinton II (MH II) Broth at 37° C. overnight. The overnight culture was diluted 50-fold in fresh MH II Broth and then incubated for several hours to reach log phase. Samples of the culture were serially diluted using MH II Broth in a 96-well plate. […] Luminescence was recorded on a Veritas™ Microplate Luminometer from Turner Biosystems (Sunnyvale, Calif.). S. aureus ATCC 25923 strain was grown in MH II Broth at 37° C. overnight. The overnight culture was diluted 100-fold in fresh MH II Broth and used as inoculum for the antimicrobial screen. Working stocks (50×) of LOPAC compounds and standard antibiotics were prepared in DMSO. Each well of the 96-well multiwell plate contained 245 μl of the inoculum and 5 μl of the 50× working stock. […] One hundred microliters of the culture was taken from each well, and the luciferase detection assay was performed as described in Example 9. Luminescence was measured using a Veritas™ Microplate Luminometer from Turner Biosystems (Sunnyvale, Calif.). […] Luminescence was recorded on a Veritas™ Microplate Luminometer from Turner Biosystems (Sunnyvale, Calif.).

P. aeruginosa = details: CDTA added at t=12 minutes, final 20 mM, to mixture with 20 mM MgCl2
Procedure: Either 100 μl of bacterial culture or 100 μl of a 1×10^−9 M ATP stock (control) was added to 100 μl of the reconstitution reagent and luminescence was measured periodically over a 35 minute time period. The microbial cultures were tested at approximately 10^6 cells per well. Additional CDTA was added at t=12 minutes to each of the samples (final concentration=20 mM CDTA).

## [Ca+2].[Cl-].[Cl-] [Ca^2+, CaCl2]
[1]
  effect on ATP detection (luminescence): impede ATP detection

## [Cl][Mn][Cl] [Mn^2+, MnCl2]
[1]
  effect on ATP detection (luminescence): impede ATP detection

## Cc1onc(-c2ccccc2)c1C(=O)N[C@@H]1C(=O)N2[C@@H]1SC(C)(C)[C@@H]2C(=O)O [oxacillin]
S. aureus ATCC 25923
  relative percentage of RLU compared to the no-oxacillin control: dose-dependent effect

## O=C(O)CN(CC(=O)O)C1CCCCC1N(CC(=O)O)CC(=O)O (stereo not shown) [CDTA, 1,2-Cyclohexanedinitrilotetraacetic acid]
P. aeruginosa
  neutralization of inhibitory divalent cation effects on ATP detection (luminescence): capable of neutralizing the inhibitory effects of divalent cations
